Data on three compounds can be found in patent US12310986B2, “Compositions and methods for the treatment of cancer cells by induction of cytotoxic oxidative stress” (Board of Regents, The University of Texas System, priority 2018, dated 2025).

The test system of one data set is HCT116 xenograft tumors. In words: HCT116 (KRAS mutant) xenograft tumors in nude mice. The data set is classed as in vivo. The conditions noted are these: VC or D-VC 1.5 g/kg, ATO 7 mg/kg; for effect on tumor growth compared to PBS (control) injections: 15 injections; for tumor weight compared to PBS treated tumors: after 15 injections, one way ANOVA; for scarring on tumors (mice with scarring): 5 mice per group. The procedure:
Pictured are the xenograft tumors of each of the 5 mice per treatment condition. Mice were injected intraperitoneally with PBS (control), Vitamin C (1.5 g/kg), D-Vitamin C (1.5 g/kg), ATO 7 mg/kg), ATO (7 mg/kg)+Vitamin C (1.5 g/kg) or ATO (7 mg/kg)+D-Vitamin C (1.5 g/kg). Mice were injected daily for 6 days and after 6th injection mice were rested for one day.
Pictured are the xenograft tumors of each of the 5 mice per treatment condition as described in FIG. 6 after 12 injections (2 weeks of treatment).
To avoid glucose fluctuations in blood, the food was withdrawn from mice 2 hrs prior drug injections and food was given back to mice after 2 hrs of the VC or D-VC injection.
1.5 million human HCT116 (KRAS mutant) cancer cells were injected into nude mice, 5 mice per experimental group. After 10 days, and after when tumors reached at least 0.8 cm in size, mice were injected daily with either PBS, PBS+1.5 g/kg vitamin C, PBS+7 mg/kg ATO. PBS+7 mg/kg ATO+1.5 g/kg vitamin C, PBS+1.5 g/kg D-Vitamin C, or PBS+7 mg/kg ATO+1.5 g/kg D-Vitamin C. The mice were injected daily, 6 times per week, and rested one day per week, for a total of 15 total drug injections. […] Initially, ATO was injected at 3 mg/kg, while vitamin C or D-VC were injected at 1 g/kg. The following day, ATO was used at 7 mg/kg, while vitamin C and D-VC were used at […].
The injection scheme was ATO injection/2 hour gap/vitamin C or D-VC injection. […] Further, it is also known that the effect of vitamin C treatment on KRAS mutant cancer cells is glucose dependent, To avoid glucose fluctuations in the blood and enhance the effect of vitamin C and D-VC, the drug injections were performed following withdrawal of the food from mice 2 hours prior ATO injections, and the food was only provided again 2 hours following the vitamin C or D-VC injections.

Data set [1] has as its system HCT116 cells. The data set is described as follows: Reactive oxygen species (ROS) detection by flow cytometry, Mito Sox Red, HCT116 cells. The class given is cell-based, human. The conditions noted are these: VC or D-VC 1 mM, ATO 5 μM. The procedure: FIG. 4: Detection of reactive oxygen species (ROS) by flow cytometry. HCT116 cells were treated with the indicated compounds as described in the FIG. 1 and analyzed by flow cytometry to detect the presence of reactive oxygen species by Mito Sox Red reagent. Mito Sox Red is a reagent from Invitrogen™ catalog #LSM360084
FIG. 5: Graphical representation of the presence of reactive oxygen species (ROS) as detected by flow cytometry. The ROS detection data shown in the FIG. 4 is presented as a graph.
It was anticipated that the cause of cytotoxic stress and apoptosis was the accumulation of reactive oxygen species (ROS), so HCT116 cells were treated as above and assayed for the presence of ROS by flow cytometry (FIG. 4). […] Treatment with 5 μM ATO increased the cells showing ROS accumulation to 26% (FIGS. 4 and 5).
In general terms: Flow cytometry measures light scatter and fluorescence of single cells or particles in a stream.

The subject of data set [2] is HCT116 cells. In words: Apoptosis flow cytometric assay, Annexin V FITC, HCT116 cells. The class given is cell-based, human. Conditions: HCT116, 72 hours; VC or D-VC 1 mM, ATO 5 μM. How it is done:
FIG. 2: Apoptotic flow cytometric analysis of HCT116 cancer following drug treatments. HCT116 cells were treated with the drugs as described in the FIG. 1 and following treatments the cells were stained with Annexin-V FITC and sorted.
FIG. 3: Graphical representation of apoptosis by flow cytometry data. Apoptotic flow cytometric data shown in the FIG. 2 is presented as a graph.

A further data set has as its system HCT116 cancer cells. The data set is described as follows: Cytotoxicity in colorectal HCT116 cancer cells, 72 hours treatment (cell images). The data set is classed as cell-based, human. The conditions noted are these: HCT116, 72 hours; VC or D-VC 1 mM, ATO 5 μM; compared to buffer. How it is done: Colorectal HCT116 cancer cells were treated with the indicated solutions for 72 hours: control (phosphate buffered saline, PBS, was added to the culture medium in 1:1000 dilution), VC 1 mM (Vitamin C was used at 1 mM concentration), D-VC 1 mM (D-Vitamin C was used at 1 mM concentration), ATO 5 μM (Arsenic Trioxide was used at 5 μM concentration) and the combination of VC 1 mM with ATO 5 μM or D-VC 1 mM with ATO 5 μM. The cell images are shown with the labeling indicating cell treatments.
Colorectal HCT116 cancer cells were treated for 72 hours with PBS, a 1 mM Vitamin C (VC) solution, 1 mM D-Vitamin CVC (D-VC also referred as D-ascorbic acid), 5 μM arsenic trioxide (ATO), Vitamin C and ATO (VC/ATO), or D-VC and ATO (D-VC/ATO) (FIG. 1).

Where [3] appears, read: after 12 injections (2 weeks of treatment).

Entries after “also recorded” stand apart in the source; their conditions may differ.

With `O=C1O[C@H]([C@@H](O)CO)C(O)=C1O` [VC, L-ascorbic acid], in the data set with HCT116 xenograft tumors, the “effect on tumor growth compared to PBS (control) injections” value (“effect on tumor growth compared to PBS” for short) is reported as “inhibitory effect on tumor growth” and the “tumor weight compared to PBS treated tumors” value is “lower compared to the PBS treated tumors, however these differences were not statistically significant”. Besides, in the data set on HCT116 cells [1], the “cells accumulating ROS” value was “about 5%”. In addition, the “apoptosis (Annexin V FITC)” value in the data set with HCT116 cells [2] is recorded as “level of apoptosis similar to the buffer control”.

Consider arsenic trioxide [ATO], for which, in the data set with HCT116 xenograft tumors, the “effect on tumor growth compared to PBS” value was “inhibitory effect on tumor growth” and the “tumor weight compared to PBS treated tumors” value is on record as “lower compared to the PBS treated tumors, however these differences were not statistically significant”. For the same compound, the “scarring on tumors (mice with scarring)” value in the data set on HCT116 xenograft tumors (setting [3]) is given as 2/5. Also, the cytotoxicity result in the data set with HCT116 cancer cells was “mild cytotoxic impact”. In the data set with HCT116 cells [1], the “cells accumulating ROS” value is listed as 26%. In addition, the “apoptosis (Annexin V FITC)” value with HCT116 cells [2] was “low increase in apoptosis over the buffer control”.

For `O=C1O[C@@H]([C@H](O)CO)C(O)=C1O` [D-VC, D-ascorbic acid], in the data set on HCT116 xenograft tumors, the “effect on tumor growth compared to PBS” value is given as “inhibitory effect on tumor growth; also recorded: appeared to be more effective alone but its effect was not consistent” and the “tumor weight compared to PBS treated tumors” value is given as “lower compared to the PBS treated tumors, however these differences were not statistically significant”. Further, the “scarring on tumors (mice with scarring)” value with HCT116 xenograft tumors (after 9 injections / within the first week of injections, intraperitoneally) is 2/5. In the data set on HCT116 xenograft tumors (setting [3]), the “scarring on tumors (mice with scarring)” value is reported as 2/5. For the same compound, the “cells accumulating ROS” value with HCT116 cells [1] is reported as “about 5%”. Also, the “apoptosis (Annexin V FITC)” value in the data set on HCT116 cells [2] is “level of apoptosis similar to the buffer control”.
